In BindingDB's records for PubMed 1646322 (Mayo Clinic, 1991):

Assays:
[1] = biological target: T1, Muscarinic acetylcholine receptor M4 (Rattus norvegicus, UniProt P08485)
T1 sequence (P08485 whole entry): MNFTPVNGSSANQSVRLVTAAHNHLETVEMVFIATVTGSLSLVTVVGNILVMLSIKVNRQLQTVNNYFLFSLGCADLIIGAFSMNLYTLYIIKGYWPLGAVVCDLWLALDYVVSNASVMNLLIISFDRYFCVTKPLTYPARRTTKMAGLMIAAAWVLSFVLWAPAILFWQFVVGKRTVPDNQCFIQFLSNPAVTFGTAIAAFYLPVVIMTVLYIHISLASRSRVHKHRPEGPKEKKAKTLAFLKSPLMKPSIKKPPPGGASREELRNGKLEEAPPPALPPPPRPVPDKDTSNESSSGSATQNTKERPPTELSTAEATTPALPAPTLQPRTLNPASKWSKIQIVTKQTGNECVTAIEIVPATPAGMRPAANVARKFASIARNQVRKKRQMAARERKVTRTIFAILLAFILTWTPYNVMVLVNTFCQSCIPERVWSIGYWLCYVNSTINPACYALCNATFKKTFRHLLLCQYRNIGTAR

[2] = biological target: T2, Muscarinic acetylcholine receptor M1 (Rattus norvegicus, UniProt P08482)
T2 sequence (P08482 whole entry): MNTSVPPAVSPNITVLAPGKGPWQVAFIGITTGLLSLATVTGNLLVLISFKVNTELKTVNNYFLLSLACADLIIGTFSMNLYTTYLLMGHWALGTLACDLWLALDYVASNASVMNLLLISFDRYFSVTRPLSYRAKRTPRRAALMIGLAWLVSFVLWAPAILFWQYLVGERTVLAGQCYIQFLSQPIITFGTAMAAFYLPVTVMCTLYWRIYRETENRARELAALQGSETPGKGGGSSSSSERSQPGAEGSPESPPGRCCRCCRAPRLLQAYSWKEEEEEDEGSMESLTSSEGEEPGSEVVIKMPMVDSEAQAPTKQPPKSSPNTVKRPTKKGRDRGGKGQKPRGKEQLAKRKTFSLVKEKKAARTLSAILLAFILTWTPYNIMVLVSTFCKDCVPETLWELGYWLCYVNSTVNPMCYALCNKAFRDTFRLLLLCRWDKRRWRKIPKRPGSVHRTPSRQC

| SMILES | Ki [1] | Ki [2] |
| --- | --- | --- |
| C[N+]1(C)CCC(OC(=O)C(c2ccccc2)c2ccccc2)CC1 | 1.4 nM | – |
| O[Si](CCCN1CCCCC1)(c1ccccc1)C1CCCCC1 (stereo not drawn) [HHSiD] | 47 nM | 60 nM |
| CCN(CC)CC1CCCCN1CC(=O)N1c2ccccc2C(=O)Nc2cccnc21 (stereo not drawn) [(AF-DX 116) 11-[2-(2-Diethylaminomethyl-piperidin-1-yl)-acetyl]-5,11-dihydro-benzo[e]pyrido[3,2-b][1,4]diazepin-6-one] | 614 nM | 1200 nM |
| COc1ccccc1CNCCCCCCNCCCCCCCCNCCCCCCNCc1ccccc1OC [METHOCTRAMINE] | 410 nM | – |
| CCN(CCCC(=O)C1CCCCC1)C(C)Cc1ccc(OC)cc1 (stereo not drawn) [NSC_42470] | 7.8 nM | 5.9 nM |
